Earlier results, collected in PubChem BioAssay AID1259409 (Chemical Carcinogenesis Research Information System (CCRIS), 2018).
Values joined by “and” are separate entries in the source; they are usually repeats but may differ in a detail not shown here. Equal entries are not always repeated.

Test system: rodent chemically induced tumor inhibition, incidence and multiplicity
Test: CCRIS tumor inhibitor studies

Structure (SMILES): C=C(C)[C@@H]1CC[C@]2(C(=O)O)CC[C@]3(C)[C@H](CC[C@@H]4[C@@]5(C)CC[C@H](O)C(C)(C)[C@@H]5CC[C@]43C)[C@@H]12
- tumour outcome (control, treated, inhibition, significance) (Carcinogen: 7,12-DIMETHYLBENZ[A]ANTHRACENE, 57-97-6, Dose [Inhibitor]: 0, 5 UMOL 2/WK BEGINNING 1 WK POST CARCINOGEN TREATMENT AND CONTINUING FOR 18 WK (STUDY DURATION: 19 WK), Route [Inhibitor]: DERMAL, Species: MOUSE, Strain/Sex: ICR/FEMALE, Target Tissue: Type of Lesion: SKIN: PAPILLOMA, Dose [Carcinogen]: 50 UG ONCE, Promoter: 12-O-TETRADECANOYLPHORBOL-13-ACETATE, 16561-29-8): 100%, 65%, 35%, not calculated

Structure (SMILES): CC(C)(Oc1ccc(CCNC(=O)c2ccc(Cl)cc2)cc1)C(=O)O
- tumour outcome (control, treated, inhibition, significance) (Carcinogen: AZOXYMETHANE (25843-45-2), Dose [Inhibitor]: 0, 0.05% ADMINISTERED 1 WK AFTER END OF DEXTRAN SODIUM SULFATE TREATMENT FOR 14 WKS (STUDY DURATION: 17 WKS), Route [Inhibitor]: DIET, Species: MOUSE, Strain/Sex: CD-1/FEMALE (10,10)/(10,10), Target Tissue: Type of Lesion: COLON: ADENOCARCINOMA, Dose [Carcinogen]: 10 MG/KG ONCE, Promoter: DEXTRAN SODIUM SULFATE (9011-18-1)): 10/10 (100%), 6/10 (60%), 40%, p<0.05
- tumour outcome (control, treated, inhibition, significance) (Carcinogen: AZOXYMETHANE (25843-45-2), Dose [Inhibitor]: 0, 0.05% ADMINISTERED 1 WK AFTER END OF DEXTRAN SODIUM SULFATE TREATMENT FOR 14 WKS (STUDY DURATION: 17 WKS), Route [Inhibitor]: DIET, Species: MOUSE, Strain/Sex: CD-1/FEMALE (10,10)/(10,10), Target Tissue: Type of Lesion: COLON: ADENOMA, Dose [Carcinogen]: 10 MG/KG ONCE, Promoter: DEXTRAN SODIUM SULFATE (9011-18-1)): 10/10 (100%), 7/10 (70%), 30%, not significant

Structure (SMILES): CC(=O)OC12C[C@@H](C)[C@@]3(O)[C@@H](C=C(CO)C[C@]4(O)C(=O)C(C)=C[C@@H]34)C1C2(C)C (some centres not stated)
- tumour outcome (control, treated, inhibition, significance) (Carcinogen: 7,12-DIMETHYLBENZ[A]ANTHRACENE, 57-97-6, Dose [Inhibitor]: 0, 256 NMOL 15 D POST INITIATION DOSE FOLLOWED BY 2.56 NMOL 2/WK DURING WK 3-22 APPLIED 15 MIN PRIOR TO EACH PROMOTION D, Route [Inhibitor]: DERMAL, Species: MOUSE, Strain/Sex: CD-1/FEMALE, Target Tissue: Type of Lesion: SKIN: PAPILLOMA, Dose [Carcinogen]: 20 NMOL IN 200 µL ACETONE ONCE): 100%, 95%, 5%, not calculated
- tumour outcome (control, treated, inhibition, significance) (Carcinogen: 7,12-DIMETHYLBENZ[A]ANTHRACENE, 57-97-6, Dose [Inhibitor]: 0, 256 NMOL 15 D POST INITIATION DOSE FOLLOWED BY 2.56 UMOL 2/WK DURING WK 3-22 APPLIED 15 MIN PRIOR TO EACH PROMOTION D, Route [Inhibitor]: DERMAL, Species: MOUSE, Strain/Sex: CD-1/FEMALE, Target Tissue: Type of Lesion: SKIN: PAPILLOMA, Dose [Carcinogen]: 20 NMOL IN 200 µL ACETONE ONCE): 94%, 40%, 57%, not calculated
- tumour outcome (control, treated, inhibition, significance) (Carcinogen: 7,12-DIMETHYLBENZ[A]ANTHRACENE, 57-97-6, Dose [Inhibitor]: 0, 256 NMOL 15 D POST INITIATION DOSE FOLLOWED BY 25.6 NMOL 2/WK DURING WK 3-22 APPLIED 15 MIN PRIOR TO EACH PROMOTION D, Route [Inhibitor]: DERMAL, Species: MOUSE, Strain/Sex: CD-1/FEMALE, Target Tissue: Type of Lesion: SKIN: PAPILLOMA, Dose [Carcinogen]: 20 NMOL IN 200 µL ACETONE ONCE): 94%, 83%, 12%, not calculated and 100%, 80%, 20%, not calculated
- tumour outcome (control, treated, inhibition, significance) (Carcinogen: 7,12-DIMETHYLBENZ[A]ANTHRACENE, 57-97-6, Dose [Inhibitor]: 0, 256 NMOL 15 D POST INITIATION DOSE FOLLOWED BY 25.6 PMOL 2/WK DURING WK 3-22 APPLIED 15 MIN PRIOR TO EACH PROMOTION D, Route [Inhibitor]: DERMAL, Species: MOUSE, Strain/Sex: CD-1/FEMALE, Target Tissue: Type of Lesion: SKIN: PAPILLOMA, Dose [Carcinogen]: 20 NMOL IN 200 µL ACETONE ONCE): 100%, 97%, 3%, not calculated
- tumour outcome (control, treated, inhibition, significance) (Carcinogen: 7,12-DIMETHYLBENZ[A]ANTHRACENE, 57-97-6, Dose [Inhibitor]: 0, 256 NMOL 15 D POST INITIATION DOSE FOLLOWED BY 256 NMOL 2/WK DURING WK 3-22 APPLIED 15 MIN PRIOR TO EACH PROMOTION DO, Route [Inhibitor]: DERMAL, Species: MOUSE, Strain/Sex: CD-1/FEMALE, Target Tissue: Type of Lesion: SKIN: PAPILLOMA, Dose [Carcinogen]: 20 NMOL IN 200 µL ACETONE ONCE): 94%, 33%, 65%, not calculated and 100%, 58%, 42%, not calculated
- tumour outcome (control, treated, inhibition, significance) (Carcinogen: 7,12-DIMETHYLBENZ[A]ANTHRACENE, 57-97-6, Dose [Inhibitor]: 0, 256 NMOL 15 D POST INITIATION DOSE FOLLOWED BY 256 PMOL 2/WK DURING WK 3-22 APPLIED 15 MIN PRIOR TO EACH PROMOTION DO, Route [Inhibitor]: DERMAL, Species: MOUSE, Strain/Sex: CD-1/FEMALE, Target Tissue: Type of Lesion: SKIN: PAPILLOMA, Dose [Carcinogen]: 20 NMOL IN 200 µL ACETONE ONCE): 100%, 100%, 0%, not significant

Structure (SMILES): CC(C)(C)c1cc(-c2cc(C(C)(C)C)c(O)c(C(C)(C)C)c2)cc(C(C)(C)C)c1O
- tumour outcome (control, treated, inhibition, significance) (Carcinogen: BENZO[A]PYRENE, 50-32-8, Dose [Inhibitor]: 0.03 MMOL/G OF DIET DAILY STARTING 7 D BEFORE AND CONTINUING THROUGH 3 D AFTER CARCINOGEN TREATMENT FOLLOWED BY OBSERVAT, Route [Inhibitor]: ORAL, Species: MOUSE, Strain/Sex: ICR/FEMALE, Target Tissue: Type of Lesion: FORESTOMACH: NEOPLASM, Dose [Carcinogen]: 1 MG IN 0.2 ML CORN OIL 2/WK FOR 4 WK, Promoter: NONE USED): 90%, 89%, 1%, not significant

Structure (SMILES): O=CC[C@@H](O)[C@H](O)[C@H](O)CO
- outcome (Carcinogen: 1-METHYL-1-NITROSOUREA [684-93-5], Dose [Inhibitor]: 0, 0.02, 0.03% IN DIET 6 D AFTER CARCINOGEN FOR 5 WKS, Route [Inhibitor]: DIET, Species: RAT, Strain/Sex: SPRAGUE-DAWLEY/FEMALE (30,30)/(30,30)/(30,30), Target Tissue: Type of Lesion: MAMMARY GLAND: ADENOCARCINOMA, Dose [Carcinogen]: 50 MG/KG BW AT 21 D OF AGE (STUDY DURATION: 6-7 WKS)): 25/30 (83.3%); 15/30 (50%), 40%, p<0.001; 15/30 (50%), 40%, p<0.001

Structure (SMILES): N[C@@H](CSSC[C@H](N)C(=O)O)C(=O)O
- tumour outcome (control, treated, inhibition, significance) (Carcinogen: 4-DIMETHYLAMINOAZOBENZENE, 60-11-7, Dose [Inhibitor]: 0.5% OF DIET DAILY STARTING SIMULTANEOUSLY WITH CARCINOGEN TREATMENT AND CONTINUING THROUGH THE END OF THE STUDY (STUDY, Route [Inhibitor]: ORAL, Species: RAT, Strain/Sex: OSBORNE-MENDEL/MALE, Target Tissue: Type of Lesion: LIVER: HEPATOMA, ADENOCARCINOMA, Dose [Carcinogen]: 0.06% OF DIET DAILY THROUGH THE END OF THE STUDY, Promoter: NONE USED): 48/80 (60%), 84/87 (97%), -62%, not calculated
